Like-named read-outs stand apart in the source and are kept apart here.
Tests used:
M. fortuitum = test: 45 hr MIC against M. fortuitum (NTM); format: cell-based, Mycobacterium fortuitum; settings: M. fortuitum subsp. Fortuitum da Costa Cruz. ATCC 6841
[1] = test system: carbapenem-resistant bacterial strains; test: organism not typed; format: cell-based
Excerpt: Determination of Minimal Inhibitory Concentrations (MIC).

[2] = test system: P. aeruginosa strain PAO1; test: MIC against PAO1 in Mueller-Hinton broth with 50% human plasma or human serum; format: cell-based, Pseudomonas aeruginosa
M. smegmatis = test: 45 hr MIC against M. smegmatis (NTM), Mueller Hinton broth; format: cell-based, Mycobacterium smegmatis
M. scrofulaceum = test: 45 hr MIC against M. scrofulaceum (NTM); format: cell-based, Mycobacterium scrofulaceum; settings: M. scrofulaceum Prissick and Masson ATCC 19981
[3] = Stability assessment in 100% CAA; format: in vitro ADME; set-up: unit not given beside the values
Experimental: Stability was assessed after incubation in 100% human serum at 37° C. after 10 minutes, 1 hour, and 2 hours.
Stability assessment was further conducted in 100% CAA and rabbit serum using the same methodology discussed above.

[4] = test system: P. aeruginosa strain CFS-1292; test: Time-kill assay in CAA with 2.5% human serum; format: cell-based, Pseudomonas aeruginosa; settings: for Loss of bacterial viability: CAA with […] human serum, vs untreated controls
Experimental: Time-Kill Assay of Chp Peptide Activity. […] Exponential phase bacteria were then diluted 1:100 into CAA/HuS and peptide was added at a final concentration of either 1 or 10 μg/mL. Control cultures were included with no peptide added (i.e., buffer control).

Acinetobacter baumannii = test: microbe, parasite or virus in culture; format: cell-based; settings: for MIC50 / MIC100 / MIC Range: A. baumannii isolates (n per peptide in table)
[5] = test system: P. aeruginosa strain CFS-1292; test: MIC at pH 6, pH 7 and pH 8; format: cell-based, Pseudomonas aeruginosa
Experimental: The Chp peptides were further evaluated at varying pH levels. The MIC values were determined at pH 6, pH 7, and pH 8 for 18 different Chp peptides against P. aeruginosa strain CFS-1292. […]

[6] = test system: P. aeruginosa strain CFS-1292; test: MIC in presence and absence of Survanta pulmonary surfactant; format: cell-based, Pseudomonas aeruginosa
[7] = test system: Mycobacterium tuberculosis strains
Experimental: MIC values for various Chp peptides were determined using the CLSI method for broth microdilution in 96-well microtiter format.
Next, MIC values for various Chp peptides were determined using the CLSI method above for broth microdilution in 96-well microtiter format for two different Mycobacterium tuberculosis strains. The MIC was determined as explained above for the NTM strains.

Enterobacter cloacae = test: microbe, parasite or virus in culture; format: cell-based; settings: for MIC50 / MIC100 / MIC Range: E. cloacae isolates (n per peptide in table)
Summary of the method: (§1)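 Peptide MICs were determined by growth inhibition in CAA medium supplemented with human serum.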

Escherichia coli = test: microbe, parasite or virus in culture; format: cell-based; settings: for MIC50 / MIC100 / MIC Range: E. coli isolates (n per peptide in table)
Summary of the method: as §1

M. avium = test: 45 hr MIC against M. avium (NTM); format: cell-based, Mycobacterium avium; settings: M. avium Chester ATCC 700898
[8] = carbapenem-resistant isolate PA19
[9] = carbapenem-resistant isolate PA20
[10] = carbapenem-resistant isolate PA21
[11] = carbapenem-resistant isolate PA22
[12] = carbapenem-resistant isolate PA23
[13] = carbapenem-resistant isolate PA24
[14] = carbapenem-resistant isolate WLC-452
[15] = Acinetobacter baumannii (clinical isolate HSS), RSC 30, CAA without human serum
[16] = Acinetobacter baumannii (clinical isolate HSS), RSC 32, CAA without human serum
[17] = Acinetobacter baumannii ATCC BAA 747, CAA supplemented with human serum
[18] = CAA media + 0.19 mg/mL Survanta
[19] = Mycobacterium tuberculosis (Zopf) Lehmann and Neumann ATCC 25177
[20] = Mycobacterium tuberculosis (Zopf) Lehmann and Neumann ATCC 35817
[21] = Enterobacter cloacae (ATCC 13047, MIC control strain), RSC 1240, CAA without human serum
[22] = Enterobacter cloacae ATCC 13047, CAA supplemented with human serum
[23] = E. coli (ATCC 25922, MIC control strain), RSC 813, CAA without human serum
[24] = E. coli (HM346, colon, Crohn's disease), RSC 1212, CAA without human serum
[25] = Escherichia coli ATCC 25922, CAA supplemented with human serum

MARRYRLSRRRSRRLFSRTALRMHRRNRLRRIMRGGIRF [Chp4]
45 hr MIC (M. fortuitum): 4 µg/mL
MIC [1, 8]: 0.5 µg/mL
MIC [1, 9]: 1 µg/mL
MIC [1, 10]: 1 µg/mL
MIC [1, 11]: 1 µg/mL
MIC [1, 12]: 1 µg/mL
MIC [1, 13]: 1 µg/mL
MIC [1, 14]: 0.5 µg/mL
MIC [2]: 2 µg/mL
Minimal inhibitory concentration, Human Serum [2]: 2 µg/mL
45 hr MIC (M. smegmatis; M. smegmatis MC^2 155, Run #1): 4 µg/mL
45 hr MIC (M. smegmatis; M. smegmatis MC^2 155, Run #2): 4 µg/mL
45 hr MIC (M. scrofulaceum): 2 µg/mL
MIC (100% CAA) [3]: 0.25
Loss of bacterial viability ([4]; 1 μg/mL, 1 hour): >3.5 log10 CFU/mL
Loss of bacterial viability ([4]; 1 μg/mL, 3 hours): >4 log10 CFU/mL
Loss of bacterial viability ([4]; 1 μg/mL, 24 hours): >4.8 log10 CFU/mL
Loss of bacterial viability ([4]; 10 μg/mL, 1 hour): >3.5 log10 CFU/mL
Loss of bacterial viability ([4]; 10 μg/mL, 3 hours): >4 log10 CFU/mL
Loss of bacterial viability ([4]; 10 μg/mL, 24 hours): >4.8 log10 CFU/mL
bacterial viability after treatment (time-kill) ([4]; 1, 3 and 24 hours, 1 μg/mL and 10 μg/mL, CAA + […] human serum): multi-log fold decreases
MIC50 (Acinetobacter baumannii): 0.5 µg/mL
MIC100 (Acinetobacter baumannii): 1 µg/mL
MIC Range (Acinetobacter baumannii): 0.25 to 1 µg/mL
MIC (Acinetobacter baumannii; [15]): 4 µg/mL
MIC (Acinetobacter baumannii; [16]): 4 µg/mL
MIC (Acinetobacter baumannii; [17]): 0.125 µg/mL
MIC ([5]; CAA media (pH 7)): 0.5 µg/mL
MIC ([5]; pH 6): 0.25 µg/mL
MIC ([5]; pH 7): 0.5 µg/mL
MIC ([5]; pH 8): 1 µg/mL
MIC [6, 18]: 0.5 µg/mL
MIC ([6]; CAA media + […] Survanta): 0.5 µg/mL
MIC ([6]; CAA media alone): 0.5 µg/mL
MIC [7, 19]: 16 µg/mL
MIC [7, 20]: 8 µg/mL
MIC50 (Enterobacter cloacae): 0.5 µg/mL
MIC100 (Enterobacter cloacae): 1 µg/mL
MIC Range (Enterobacter cloacae): 0.25 to 2 µg/mL
MIC (Enterobacter cloacae; [21]): 4 µg/mL
MIC (Enterobacter cloacae; [22]): 1 µg/mL
MIC (Escherichia coli; [23]): 2 µg/mL
MIC (Escherichia coli; [24]): 4 µg/mL
MIC50 (Escherichia coli): 1 µg/mL
MIC100 (Escherichia coli): 2 µg/mL
MIC Range (Escherichia coli): 0.5 to 4 µg/mL
MIC (Escherichia coli; [25]): 0.5 µg/mL
45 hr MIC (M. avium): 1 µg/mL

MVRRRRLRRRISRRIFRRTVARVGRRRRSFRGGIRF [Chp1]
45 hr MIC (M. fortuitum): 16 µg/mL
MIC [1, 8]: 2 µg/mL
MIC [1, 9]: 4 µg/mL
MIC [1, 10]: 4 µg/mL
MIC [1, 11]: 4 µg/mL
MIC [1, 12]: 4 µg/mL
MIC [1, 13]: 4 µg/mL
MIC [1, 14]: 2 µg/mL
45 hr MIC (M. smegmatis; M. smegmatis MC^2 155, Run #1): 8 µg/mL
45 hr MIC (M. smegmatis; M. smegmatis MC^2 155, Run #2): 16 µg/mL
45 hr MIC (M. scrofulaceum): 4 µg/mL
MIC (100% CAA) [3]: 0.5
MIC50 (Acinetobacter baumannii): 2 µg/mL
MIC100 (Acinetobacter baumannii): 4 µg/mL
MIC Range (Acinetobacter baumannii): 1 to 4 µg/mL
MIC (Acinetobacter baumannii; [15]): 8 µg/mL
MIC (Acinetobacter baumannii; [16]): 8 µg/mL
MIC (Acinetobacter baumannii; [17]): 2 µg/mL
MIC ([5]; CAA media (pH 7)): 1 µg/mL
MIC ([5]; pH 6): 0.5 µg/mL
MIC ([5]; pH 7): 1 µg/mL
MIC ([5]; pH 8): 1 µg/mL
MIC [6, 18]: 2 µg/mL
MIC ([6]; CAA media + […] Survanta): 2 µg/mL
MIC ([6]; CAA media alone): 1 µg/mL
MIC [7, 19]: 64 µg/mL
MIC [7, 20]: 32 µg/mL
MIC50 (Enterobacter cloacae): 2 µg/mL
MIC100 (Enterobacter cloacae): 4 µg/mL
MIC Range (Enterobacter cloacae): 2 to 4 µg/mL
MIC (Enterobacter cloacae; [21]): 8 µg/mL
MIC (Enterobacter cloacae; [22]): 4 µg/mL
MIC (Escherichia coli; [23]): 8 µg/mL
MIC (Escherichia coli; [24]): 8 µg/mL
MIC50 (Escherichia coli): 2 µg/mL
MIC100 (Escherichia coli): 4 µg/mL
MIC Range (Escherichia coli): 1 to 4 µg/mL
MIC (Escherichia coli; [25]): 2 µg/mL
45 hr MIC (M. avium): 4 µg/mL

— patent US20220401514A1, “ANTIMICROBIAL, BACTERIOPHAGE-DERIVED POLYPEPTIDES AND THEIR USE AGAINST GRAM-NEGATIVE AND ACID-FAST BACTERIA” (CONTRAFECT CORPORATION, priority 2019, published 2022)
